Experiments:
RH-41 (Rhabdomyosarcoma) = test: combination Emax (second highest fraction inhibited in the dose matrix, 72 h); higher = more inhibition; extreme values may be limits of the assay
Procedure, shortened: (§1)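 Bliss excess equals the observed combination effect minus the expected value EA + EB − EA·EB, where EA and EB are the effects of each agent alone. Combination Emax is the second-highest inhibition within the matrix. Inhibition was scaled from CellTiter-Glo 2.0 luminescence, with 0 set by vehicle wells and 1 by blank wells, after 72 hours of two-drug dosing of cells plated in 1536-well plates.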

[1] = system: KYSE-140 (Esophageal Squamous Cell Carcinoma); test: as above
Procedure, shortened: as §1

[2] = system: DMS-53 (Small Cell Lung Carcinoma); test: as above
Procedure, shortened: as §1

[3] = system: LS-411N (Colorectal Carcinoma); test: as above
Procedure, shortened: as §1

AU565 (Breast Carcinoma) = test: as above
Procedure, shortened: as §1

[4] = system: Jurkat (T-Lymphoblastic Leukemia); test: as above
Procedure, shortened: as §1

[5] = system: HCC1428 (Breast Carcinoma); test: as above
Procedure, shortened: as §1

[6] = system: ESO26 (Esophageal Adenocarcinoma); test: as above
Procedure, shortened: as §1

A204 (Rhabdomyosarcoma) = test: as above
Procedure, shortened: as §1

5637 (Bladder Carcinoma) = test: as above
Procedure, shortened: as §1

[7] = system: EPLC-272H (Other Solid Carcinomas); test: as above
Procedure, shortened: as §1

[8] = system: OACp4C (Esophageal Adenocarcinoma); test: as above
Procedure, shortened: as §1

[9] = system: GCT (Other Solid Carcinomas); test: as above
Procedure, shortened: as §1

IM-9 (Non-Cancerous) = test: Bliss excess, mean over the matrix (fraction); higher = more synergy
Procedure, shortened: as §1

[10] = system: KYSE-220 (Esophageal Squamous Cell Carcinoma); test: as above
Procedure, shortened: as §1

769-P (Kidney Carcinoma) = test: as above
Procedure, shortened: as §1

EW-7 (Ewing's Sarcoma) = test: as above
Procedure, shortened: as §1

[11] = system: NCI-H2087 (Lung Adenocarcinoma); test: as above
Procedure, shortened: as §1

[12] = system: NCI-H1651 (Lung Adenocarcinoma); test: as above
Procedure, shortened: as §1

[13] = system: JHU-022 (Oral Cavity Carcinoma); test: as above
Procedure, shortened: as §1

| SMILES | combination Emax (RH-41 (Rhabdomyosarcoma)) | combination Emax [1] | combination Emax [2] | combination Emax [3] | combination Emax (AU565 (Breast Carcinoma)) | combination Emax [4] | combination Emax [5] | combination Emax [6] | combination Emax (A204 (Rhabdomyosarcoma)) | combination Emax (5637 (Bladder Carcinoma)) | combination Emax [7] | combination Emax [8] | combination Emax [9] | Bliss excess (IM-9 (Non-Cancerous)) | Bliss excess [10] | Bliss excess (769-P (Kidney Carcinoma)) | Bliss excess (EW-7 (Ewing's Sarcoma)) | Bliss excess [11] | Bliss excess [12] | Bliss excess [13] |
| --- | --- | --- | --- | --- | --- | --- | --- | --- | --- | --- | --- | --- | --- | --- | --- | --- | --- | --- | --- | --- |
| Cc1cc2ncnn2cc1Nc1ncc2c(n1)n(C1CCOCC1)c(=O)n2C [AZD7648] + CCN(CCO)CCCOc1ccc2c(Nc3cc(CC(=O)Nc4cccc(F)c4)[nH]n3)ncnc2c1 [AZD2811] (first compound max 10 µM, 7x7, partner max 1 µM) | 0.329 | 0.353 | 0.165 | 0.208 | 0.366 | 0.232 | 0.326 | 0 | 0.467 | 0.648 | 0.496 | 0.63 | 0.312 | -0.0432 | 0.0544 | 0.0313 | 0.043 | -0.0209 | 0.0404 | 0.028 |
| CN(CCO)CC[C@H](CSc1ccccc1)Nc1ccc(S(=O)(=O)NC(=O)c2ccc(N3CCC([C@@H](O)c4ccccc4-c4ccc(Cl)cc4)CC3)cc2)cc1S(=O)(=O)C(F)(F)F [AZD4320] + C1CN(CCC1(C(=O)N[C@@H](CCO)C2=CC=C(C=C2)Cl)N)C3=NC=NC4=C3C=CN4 [Capivasertib] (first compound max 1 µM, 7x7, partner max 3 µM) | 1 | 0.664 | 0.965 | 0.543 | 0.413 | 0.883 | 0.446 | 0.345 | 0.266 | 0.328 | 0.642 | 0.954 | 0.449 | -0.0399 | -0.0056 | -0.0478 | 0.0586 | -0.0696 | -0.0005 | -0.0491 |
| CN(CCO)CC[C@H](CSc1ccccc1)Nc1ccc(S(=O)(=O)NC(=O)c2ccc(N3CCC([C@@H](O)c4ccccc4-c4ccc(Cl)cc4)CC3)cc2)cc1S(=O)(=O)C(F)(F)F [AZD4320] + C=CCn1c(=O)c2cnc(Nc3ccc(N4CCN(C)CC4)cc3)nc2n1-c1cccc(C(C)(C)O)n1 [AZD1775] (first compound max 1 µM, partner max 1 µM) | 1 | 0.849 | 0.977 | 0.938 | 0.829 | 0.993 | 0.505 | 0.709 | 0.334 | 0.979 | 0.909 | 0.938 | 0.481 | 0.0638 | -0.047 | -0.0025 | 0.14 | 0.0088 | 0.0154 | 0.032 |
| CN(CCO)CC[C@H](CSc1ccccc1)Nc1ccc(S(=O)(=O)NC(=O)c2ccc(N3CCC([C@@H](O)c4ccccc4-c4ccc(Cl)cc4)CC3)cc2)cc1S(=O)(=O)C(F)(F)F [AZD4320] + C[C@@H](Nc1cc(F)cc(F)c1)c1cc(C(=O)N(C)C)cc2c(=O)cc(N3CCOCC3)oc12 [AZD8186] (first compound max 1 µM, 7x7, partner max 3 µM) | 0.941 | 0.401 | 0.991 | 0.414 | 0.364 | 0.842 | 0.525 | 0.325 | 0.451 | 0.672 | 0.602 | 0.916 | 0.442 | 0.0079 | -0.0227 | 0.0227 | -0.014 | -0.0271 | -0.0074 | -0.0104 |
| Cc1nc(Nc2ncc(C(=O)Nc3c(C)cccc3Cl)s2)cc(N2CCN(CCO)CC2)n1 [Dasatinib] + CC(=O)Nc1cccc(-n2c(=O)n(C3CC3)c(=O)c3c(Nc4ccc(I)cc4F)n(C)c(=O)c(C)c32)c1 [Trametinib] (first compound max 2 µM, 7x7, partner max 1 µM) | 0.443 | 0.522 | 0.334 | 0.834 | 0.123 | 0.157 | 0.205 | 0.464 | 0.512 | 0.973 | 0.956 | 0.995 | 0.554 | -0.0439 | -0.0522 | -0.0331 | -0.0074 | -0.0024 | -0.042 | -0.0483 |
| C[C@@H](c1ccc2nccn2c1)n1nnc2ncc(-c3cnn(C)c3)nc21 [Savolitinib] + Cc1c2c(nn1C)CSCc1cc(n(C)n1)CSc1cc(c3ccccc3c1)OCCCc1c(C(=O)O)n(C)c3c-2c(Cl)ccc13 [AZD5991] (first compound max 1 µM, 7x7, partner max 1 µM) | 0.888 | 0.317 | 0.209 | 0.188 | 1 | 0.575 | 0.971 | 0.169 | 0.167 | 0.0543 | 0.462 | 0.283 | 0.211 | 0.0478 | -0.025 | -0.0252 | -0.0336 | 0.0097 | -0.0358 | -0.0742 |
| Cc1cc2ncnn2cc1Nc1ncc2c(n1)n(C1CCOCC1)c(=O)n2C [AZD7648] + CN(C)CCCOc1ccc(-c2ccc3ncc4c(c3c2)n(C2CCOCC2)c(=O)n4C)cn1 [AZD0156] (first compound max 10 µM, 7x7, partner max 1 µM) | 0.282 | 0.216 | 0.139 | 0.115 | 0.593 | 0.23 | 0.238 | 0 | 0.384 | 0.153 | 0.458 | 0.329 | 0.343 | -0.0509 | 0.0204 | -0.0086 | -0.03 | -0.0115 | 0.0089 | -0.057 |
| CN(CCO)CC[C@H](CSc1ccccc1)Nc1ccc(S(=O)(=O)NC(=O)c2ccc(N3CCC([C@@H](O)c4ccccc4-c4ccc(Cl)cc4)CC3)cc2)cc1S(=O)(=O)C(F)(F)F [AZD4320] + Cn1cnc2c(F)c(Nc3ccc(Br)cc3Cl)c(C(=O)NOCCO)cc21 [Selumetinib] (first compound max 1 µM, 7x7, partner max 3 µM) | 0.855 | 0.289 | 1 | 0.907 | 0.421 | 0.798 | 0.559 | 0.3 | 0.325 | 0.782 | 0.562 | 0.967 | 0.352 | 0.051 | 0.043 | 0.0392 | 0.0295 | 0.0142 | 0.0238 | 0.0374 |
| COc1cc2ncnc(Nc3ccc(F)c(Cl)c3)c2cc1OCCCN1CCOCC1 [Gefitinib] + CC(C)n1c(=O)n(C)c2cnc3cc(F)c(-c4ccc(OCCCN5CCCCC5)nc4)cc3c21 [AZD1390] (first compound max 10 µM, 7x7, partner max 0.3 µM) | 0.147 | 0.534 | 0.147 | 0.0453 | 0.737 | 0.199 | 0.101 | 0.571 | 0.139 | 0.495 | 0.565 | 0.572 | 0.12 | -0.0511 | -0.0059 | -0.0722 | -0.0416 | -0.135 | -0.0554 | -0.053 |
| CN(CCO)CC[C@H](CSc1ccccc1)Nc1ccc(S(=O)(=O)NC(=O)c2ccc(N3CCC([C@@H](O)c4ccccc4-c4ccc(Cl)cc4)CC3)cc2)cc1S(=O)(=O)C(F)(F)F [AZD4320] + CCN(CCO)CCCOc1ccc2c(Nc3cc(CC(=O)Nc4cccc(F)c4)[nH]n3)ncnc2c1 [AZD2811] (first compound max 1 µM, 7x7, partner max 1 µM) | 0.828 | 0.334 | 0.949 | 0.567 | 0.34 | 0.512 | 0.754 | 0.112 | 0.261 | 0.898 | 0.635 | 0.863 | 0.239 | -0.0509 | 0.0129 | 0.0052 | 0.126 | 0.0018 | -0.0013 | -0.0183 |
| CN(CCO)CC[C@H](CSc1ccccc1)Nc1ccc(S(=O)(=O)NC(=O)c2ccc(N3CCC([C@@H](O)c4ccccc4-c4ccc(Cl)cc4)CC3)cc2)cc1S(=O)(=O)C(F)(F)F [AZD4320] + C[C@@H]1COCCN1C2=NC(=NC(=C2)C3(CC3)[S@](=N)(=O)C)C4=C5C=CNC5=NC=C4 [AZD6738] (first compound max 1 µM, 7x7, partner max 10 µM) | 0.964 | 0.878 | 0.994 | 0.943 | 0.494 | 0.955 | 0.708 | 0.628 | 0.438 | 0.91 | 0.936 | 0.95 | 0.304 | 0.0007 | -0.0076 | -0.0167 | 0.0835 | 0.0149 | 0.0261 | -0.0035 |
| CN(CCO)CC[C@H](CSc1ccccc1)Nc1ccc(S(=O)(=O)NC(=O)c2ccc(N3CCC([C@@H](O)c4ccccc4-c4ccc(Cl)cc4)CC3)cc2)cc1S(=O)(=O)C(F)(F)F [AZD4320] + Cc1cc2ncnn2cc1Nc1ncc2c(n1)n(C1CCOCC1)c(=O)n2C [AZD7648] (first compound max 1 µM, 7x7, partner max 10 µM) | 0.91 | 0.203 | 0.977 | 0.183 | 0.327 | 0.655 | 0.584 | 0.0775 | 0.273 | 0.172 | 0.525 | 0.906 | 0.25 | 0.0473 | -0.0165 | -0.0572 | 0.0633 | -0.0145 | -0.0454 | -0.0477 |
